PubChem BioAssay (NCI)
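Results reflect a 48-hour exposure of cells in 96-well plates to compound at five concentrations. At the GI50, growth is halved. TGI: concentration producing complete growth inhibition.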

Assays:
Test in all cases: inhibition of tumour cell growth, NCI panel, 48 h
[1] = test system: 786-0 renal
[2] = test system: A498 renal
[3] = test system: A549 NSCLC
[4] = test system: ACHN renal
[5] = test system: BT-549 breast
[6] = test system: CAKI-1 renal
[7] = test system: CCRF-CEM leukemia
[8] = test system: COLO 205 colon
[9] = test system: DU-145 prostate
[10] = test system: EKVX NSCLC
[11] = test system: HCC-2998 colon
[12] = test system: HCT-116 colon
[13] = test system: HCT-15 colon
[14] = test system: HL-60(TB) leukemia
[15] = test system: HOP-62 NSCLC
[16] = test system: HOP-92 NSCLC
[17] = test system: HS 578T breast
[18] = test system: HT29 colon
[19] = test system: IGROV1 ovarian
[20] = test system: K-562 leukemia
[21] = test system: KM12 colon
[22] = test system: LOX IMVI melanoma
[23] = test system: M14 melanoma
[24] = test system: MALME-3M melanoma
[25] = test system: MCF7 breast
[26] = test system: MDA-MB-231 breast
[27] = test system: MDA-MB-435
[28] = test system: MOLT-4 leukemia
[29] = test system: NCI-H226 lung
[30] = test system: NCI-H23 lung
[31] = test system: NCI-H460 lung
[32] = test system: NCI-H522 lung
[33] = test system: NCI/ADR-RES ovarian
[34] = test system: OVCAR-3 ovarian
[35] = test system: OVCAR-4 ovarian
[36] = test system: OVCAR-5 ovarian
[37] = test system: OVCAR-8 ovarian
[38] = test system: PC-3 prostate
[39] = test system: RPMI-8226 leukemia
[40] = test system: RXF 393 renal
[41] = test system: SF-268 CNS
[42] = test system: SF-295 CNS
[43] = test system: SF-539 CNS
[44] = test system: SK-MEL-2 melanoma
[45] = test system: SK-MEL-28 melanoma
[46] = test system: SK-MEL-5 melanoma
[47] = test system: SK-OV-3 ovarian
[48] = test system: SN12C renal
[49] = test system: SNB-19 CNS
[50] = test system: SNB-75 CNS
[51] = test system: SR leukemia
[52] = test system: SW-620 colon
[53] = test system: T-47D breast
[54] = test system: TK-10 renal
[55] = test system: U251 CNS
[56] = test system: UACC-257 melanoma
[57] = test system: UACC-62 melanoma
[58] = test system: UO-31 renal

For Nc1nonc1-c1nc2cnccc2n1C1CC1, the GI50 [1] was 5.44 µM, the TGI [1] was > 25 µM and the GI50 [2] was 1.97 µM. The TGI [2] was 8.77 µM, the GI50 [3] was 6.39 µM and the TGI [3] was > 25 µM. The GI50 [4] was 6.25 µM, the TGI [4] was > 25 µM and the GI50 [5] was 3.85 µM. The TGI [5] was 19.2 µM, the GI50 [6] was 1.45 µM and the TGI [6] was > 25 µM. The GI50 [7] was 7.99 µM, the TGI [7] was > 25 µM and the GI50 [8] was 4.52 µM. The TGI [8] was > 14.4 µM, the GI50 [9] was 10.6 µM and the TGI [9] was > 25 µM. The GI50 [10] was 1.63 µM, the TGI [10] was > 25 µM and the GI50 [11] was 12.4 µM. The TGI [11] was > 25 µM, the GI50 [12] was 5.62 µM and the TGI [12] was > 25 µM. For the same compound, the GI50 [13] was 6.61 µM, the TGI [13] was > 25 µM and the GI50 [14] was 5.32 µM. For the same compound, the TGI [14] was 14.6 µM, the GI50 [15] was 5.33 µM and the TGI [15] was > 16.8 µM. The GI50 [16] was 0.502 µM, the TGI [16] was > 25 µM and the GI50 [17] was 1.16 µM. For the same compound, the TGI [17] was 9.54 µM, the GI50 [18] was 5.87 µM and the TGI [18] was > 25 µM. The GI50 [19] was 8.76 µM, the TGI [19] was > 25 µM and the GI50 [20] was > 21 µM. The TGI [20] was > 25 µM, the GI50 [21] was 6.46 µM and the TGI [21] was > 20.9 µM. The GI50 [22] was 6.54 µM, the TGI [22] was > 18 µM and the GI50 [23] was 14.1 µM. For the same compound, the TGI [23] was > 25 µM, the GI50 [24] was > 15.9 µM and the TGI [24] was > 25 µM. For the same compound, the GI50 [25] was 6.05 µM, the TGI [25] was > 17.3 µM and the GI50 [26] was 8.75 µM. For the same compound, the TGI [26] was > 25 µM, the GI50 [27] was 11.2 µM and the TGI [27] was > 25 µM. For the same compound, the GI50 [28] was 12.1 µM, the TGI [28] was > 25 µM and the GI50 [29] was 0.739 µM. The TGI [29] was > 14.6 µM, the GI50 [30] was 7.3 µM and the TGI [30] was > 25 µM. For the same compound, the GI50 [31] was 6.83 µM, the TGI [31] was > 25 µM and the GI50 [32] was 3.43 µM. The TGI [32] was 13.2 µM, the GI50 [33] was 10.6 µM and the TGI [33] was > 25 µM. For the same compound, the GI50 [34] was 7.55 µM, the TGI [34] was > 25 µM and the GI50 [35] was 7.4 µM. The TGI [35] was > 25 µM, the GI50 [36] was 5.14 µM and the TGI [36] was > 25 µM. For the same compound, the GI50 [37] was 6.83 µM, the TGI [37] was > 25 µM and the GI50 [38] was 17.7 µM. For the same compound, the TGI [38] was > 25 µM, the GI50 [39] was 6.46 µM and the TGI [39] was 24.4 µM. It also gave a GI50 [40] of 1.2 µM, a TGI [40] of 6.92 µM and a GI50 [41] of 4.98 µM. For the same compound, the TGI [41] was > 25 µM, the GI50 [42] was 7.38 µM and the TGI [42] was > 25 µM. It also gave a GI50 [43] of 2.54 µM, a TGI [43] of 10.1 µM and a GI50 [44] of 5.35 µM. For the same compound, the TGI [44] was > 21.7 µM, the GI50 [45] was 8.47 µM and the TGI [45] was > 20.9 µM. For the same compound, the GI50 [46] was 5.81 µM, the TGI [46] was > 19 µM and the GI50 [47] was 4.36 µM. The TGI [47] was 18.4 µM, the GI50 [48] was 7.03 µM and the TGI [48] was > 25 µM. For the same compound, the GI50 [49] was 12 µM, the TGI [49] was > 25 µM and the GI50 [50] was 3.02 µM. The TGI [50] was > 18.5 µM, the GI50 [51] was 3.81 µM and the TGI [51] was 15 µM. For the same compound, the GI50 [52] was 5.42 µM, the TGI [52] was > 25 µM and the GI50 [53] was 5.7 µM. For the same compound, the TGI [53] was > 22.3 µM, the GI50 [54] was 0.636 µM and the TGI [54] was > 20.3 µM. The GI50 [55] was 9.09 µM, the TGI [55] was > 25 µM and the GI50 [56] was 18.1 µM. For the same compound, the TGI [56] was > 25 µM, the GI50 [57] was 7.59 µM and the TGI [57] was > 25 µM. For the same compound, the GI50 [58] was 2.09 µM and the TGI [58] was > 25 µM.
